Data: paper PMC9306752, “Sandacrabins – Structurally Unique Antiviral RNA Polymerase Inhibitors from a Rare Myxobacterium” (Chemistry (Weinheim an Der Bergstrasse, Germany), 2022)
≈ marks a conversion by molar mass, not a printed value. Read-outs that look alike come from different tables or passages of the source. Blank lines part the entries; values can stand above or below the compound they belong to.

What was measured:
Acyrthosiphon pisum = assay: Insecticidal activity, direct application to the posterior segment of adult insects; format: in vivo; settings: for Death rate at 0.5 μg/insect: adult A. pisum, 0.5 μg/insect in acetone, survival after one hour; for Death rate at 0.5 μg/insect / Death rate: 20 insects; for Death rate: positive control, 0.5 microliter of 0.01 μg/mL in acetone, after one hour
Pichia anomala = assay: Antimicrobial MIC determination, serial dilution in 96 well plates; format: cell-based; settings: Hansenula anomala
[1] = molecular target: SARS-CoV-2 RdRp complex (Nsp7, Nsp8, Nsp12) (Severe acute respiratory syndrome coronavirus 2, UniProt P0DTD1); assay: biochemical; settings: full template-length RNA product
Escherichia coli BW25113 = assay: Antimicrobial MIC determination, serial dilution in 96 well plates; format: cell-based; settings: 24 h at 37 °C
Huh 7.5 cells = assay: MTT assay, non-infected cells; format: cell-based; settings: Homo sapiens, Huh7.5, 120 h
[2] = test system: Escherichia coli ΔacrB JW0451-2; assay: Antimicrobial MIC determination, serial dilution in 96 well plates; format: cell-based; settings: 24 h
[3] = test system: Mycobacterium smegmatis mc2 155; assay: as above; format: cell-based; settings: Mycolicibacterium smegmatis, MC2155
[4] = test system: Candida albicans DSM-1665; assay: as above; format: cell-based; settings: DSM1665
[5] = test system: Pseudomonas aeruginosa PA14; assay: as above; format: cell-based; settings: 24 h at 37 °C
U-2 OS cells = assay: MTT assay; format: cell-based; settings: Homo sapiens, U2OS, 120 h
Bacillus subtilis DSM-10 = assay: Antimicrobial MIC determination, serial dilution in 96 well plates; format: cell-based
[6] = test system: Staphylococcus aureus Newman; assay: as above; format: cell-based; settings: 24 h at 37 °C
HCoV229E = assay: cells; format: cell-based, human pathogenic coronavirus HCoV229E; settings: for IC50: HCoV229E replication in Huh-7.5 cells; for factor between cytotoxic activity (IC50 Huh-7.5) and antiviral activity (IC50 HCoV229E): IC50 Huh-7.5 versus IC50 HCoV229E
Huh-7.5 host cells = Huh-7.5 host cells in the antiviral assay
[7] = non-infected Huh 7.5 cells, 5 days at 37 °C
[8] = DSM10, 24 h at 37 °C, read-out: MIC
[9] = Homo sapiens, Huh7.5, 48 h at 33 °C

SMILES: CC(C)=CCC/C(C)=C/CC/C(C)=C/Cn1c(C)nc2cc(C)c(C)cc21 [Sandacrabin E]
- Death rate at 0.5 μg/insect (Acyrthosiphon pisum): 90%
- MIC (Pichia anomala): > 64 mg/L
- IC50 [1]: 43 µM
- MIC (Escherichia coli BW25113): > 64 mg/L
- IC50 (Huh 7.5 cells; [7]): 6.72 µM
- MIC [2]: > 64 mg/L
- MIC [3]: 64 mg/L (≈ 176 µM)
- MIC [4]: > 64 mg/L
- MIC [5]: > 64 mg/L
- IC50 (U-2 OS cells; 5 days at 37 °C): 13.7 µM
- MIC (Bacillus subtilis DSM-10; 24 h at 37 °C): 64 mg/L (≈ 176 µM)
- MIC (Bacillus subtilis DSM-10; [8]): 64 mg/L (≈ 176 µM)
- MIC [6]: 64 mg/L (≈ 176 µM)
- IC50 (HCoV229E; [9]): 1.91 µM
- factor between cytotoxic activity (IC50 Huh-7.5) and antiviral activity (IC50 HCoV229E) (HCoV229E): 3–4 fold

SMILES: CC(C)=CCC/C(C)=C/CC/C(C)=C/Cn1c[n+](C/C=C(\C)CC/C=C(\C)CCC=C(C)C)c2cc(C)c(C)cc21 [Sandacrabin B]
- Death rate at 0.5 μg/insect (Acyrthosiphon pisum): 100%
- MIC (Pichia anomala): > 64 mg/L
- IC50 [1]: 3.5 µM
- MIC (Escherichia coli BW25113): > 64 mg/L
- IC50 (Huh 7.5 cells; [7]): 0.7 µM
- MIC [2]: > 64 mg/L
- MIC [3]: > 64 mg/L
- MIC [4]: > 64 mg/L
- MIC [5]: > 64 mg/L
- IC50 (U-2 OS cells; 5 days at 37 °C): 0.51 µM
- MIC (Bacillus subtilis DSM-10; 24 h at 37 °C): 64 mg/L
- MIC (Bacillus subtilis DSM-10; [8]): 64 mg/L
- MIC [6]: 64 to 128 mg/L
- IC50 (HCoV229E; [9]): 0.18 µM
- factor between cytotoxic activity (IC50 Huh-7.5) and antiviral activity (IC50 HCoV229E) (HCoV229E): 3–4 fold
- cytotoxic effects on host cells (in words) (Huh-7.5 host cells): cytotoxic effects at the highest test concentration

SMILES: CN[C@H](CC(C)C)C(=O)N[C@H]1C(=O)N[C@@H](CC(N)=O)C(=O)N[C@H]2C(=O)N[C@H]3C(=O)N[C@H](C(=O)N[C@H](C(=O)O)c4cc(O)cc(O)c4-c4cc3ccc4O)[C@H](O)c3ccc(c(Cl)c3)Oc3cc2cc(c3O[C@@H]2O[C@H](CO)[C@@H](O)[C@H](O)[C@H]2O[C@H]2C[C@](C)(N)[C@H](O)[C@H](C)O2)Oc2ccc(cc2Cl)[C@H]1O [Vancomycin, reference compound]
- MIC (Bacillus subtilis DSM-10; [8]): 0.1 to 0.2 mg/L (≈ 0.069 to 0.138 µM)

SMILES: CCC(CC)COC(=O)[C@H](C)N[P@](=O)(OC[C@H]1O[C@@](C#N)(c2ccc3c(N)ncnn23)[C@H](O)[C@@H]1O)Oc1ccccc1 [Remdesivir, reference compound]
- IC50 (HCoV229E; positive control, 48 h): 0.0056 µM

SMILES: CC(C)=CCC/C(C)=C/CC/C(C)=C/Cn1c(/C=C(\C)CC/C=C(\C)CCC=C(C)C)nc2cc(C)c(C)cc21 [Sandacrabin A]
- Death rate at 0.5 μg/insect (Acyrthosiphon pisum): 10%
- minimal insecticidal concentration (Acyrthosiphon pisum; dilution series 5–0.05 μg per insect, test group of three insects): > 5 μg/insect
- MIC (Pichia anomala): > 64 mg/L
- IC50 [1]: 108 µM
- MIC (Escherichia coli BW25113): > 64 mg/L
- IC50 (Huh 7.5 cells; [7]): > 37 µM
- MIC [2]: > 64 mg/L
- MIC [3]: > 64 mg/L
- MIC [4]: > 64 mg/L
- MIC [5]: > 64 mg/L
- IC50 (U-2 OS cells; 5 days at 37 °C): > 37 µM
- MIC (Bacillus subtilis DSM-10; 24 h at 37 °C): 32 mg/L (≈ 59.2 µM)
- MIC (Bacillus subtilis DSM-10; [8]): 32 mg/L (≈ 59.2 µM)
- MIC [6]: 128 mg/L (≈ 237 µM)
- IC50 (HCoV229E; [9]): > 10 µM
- antiviral activity, effect on viral replication (in words) (HCoV229E; cells infected with HCoV229E): did not show any effect on viral replication

SMILES: O=[N+]([O-])NC1=NCCN1Cc1ccc(Cl)nc1 [Imidacloprid, reference compound]
- Death rate (Acyrthosiphon pisum): 100 (Imidacloprid) %
- Death rate (Acyrthosiphon pisum; listed as imidacloprid): 100%

SMILES: CC(C)=CCC/C(C)=C/CC/C(C)=C/Cn1c(C)[n+](C/C=C(\C)CC/C=C(\C)CCC=C(C)C)c2cc(C)c(C)cc21 [Sandacrabin C]
- Death rate at 0.5 μg/insect (Acyrthosiphon pisum): 90%
- MIC (Pichia anomala): > 64 mg/L
- IC50 [1]: 6.8 µM
- MIC (Escherichia coli BW25113): > 64 mg/L
- IC50 (Huh 7.5 cells; [7]): 3.61 µM
- MIC [2]: > 64 mg/L
- MIC [3]: > 64 mg/L
- MIC [4]: > 64 mg/L
- MIC [5]: > 64 mg/L
- IC50 (U-2 OS cells; 5 days at 37 °C): 1.22 µM
- MIC (Bacillus subtilis DSM-10; 24 h at 37 °C): 128 mg/L
- MIC (Bacillus subtilis DSM-10; [8]): 128 mg/L
- MIC [6]: 64 to 128 mg/L
- IC50 (HCoV229E; [9]): 0.34 µM
- factor between cytotoxic activity (IC50 Huh-7.5) and antiviral activity (IC50 HCoV229E) (HCoV229E): 11 fold
- cytotoxic effects on host cells (in words) (Huh-7.5 host cells): cytotoxic effects at the highest test concentration

- IC50 (Huh 7.5 cells; positive control, Huh 7.5 cells, 5 days): 0.037 µM
SMILES: COc1cccc2c1C(=O)c1c(O)c3c(c(O)c1C2=O)C[C@@](O)(C(=O)CO)C[C@@H]3O[C@H]1C[C@H](N)[C@H](O)[C@H](C)O1 [Doxorubicin, reference compound]
- IC50 (U-2 OS cells; positive control, 5 days): 0.015 µM

SMILES: CC(C)=CCC/C(C)=C/CC/C(C)=C/Cn1cnc2cc(C)c(C)cc21 [Sandacrabin D]
- Death rate at 0.5 μg/insect (Acyrthosiphon pisum): 100%
- MIC (Pichia anomala): > 64 mg/L
- IC50 [1]: 85 µM
- MIC (Escherichia coli BW25113): > 64 mg/L
- IC50 (Huh 7.5 cells; [7]): 4.63 µM
- MIC [2]: > 64 mg/L
- MIC [3]: 64 mg/L (≈ 183 µM)
- MIC [4]: > 64 mg/L
- MIC [5]: > 64 mg/L
- IC50 (U-2 OS cells; 5 days at 37 °C): 16.9 µM
- MIC (Bacillus subtilis DSM-10; 24 h at 37 °C): 64 mg/L (≈ 183 µM)
- MIC (Bacillus subtilis DSM-10; [8]): 64 mg/L (≈ 183 µM)
- MIC [6]: 64 mg/L (≈ 183 µM)
- IC50 (HCoV229E; [9]): 1.64 µM
- factor between cytotoxic activity (IC50 Huh-7.5) and antiviral activity (IC50 HCoV229E) (HCoV229E): 3–4 fold
